Experimental data taken from BindingDB's records for doi:10.1021/jm00082a020 (Bristol-Myers Squibb Pharmaceutical Research Institute, 1992).

assay: In vitro ability to displace the specific binding of [3H]diltiazem to diltiazem receptor in guinea pig skeletal muscle.

Row | Kd | SMILES
1 | 540 nM | COc1ccc([C@@H]2Cc3c(cccc3C(F)(F)F)N(C(C)CN(C)C)C(=O)[C@@H]2C)cc1 (stereo partly specified)

assay: as above; remark: another data set of the same source

Row | SMILES | Kd
2 | CCc1ccc([C@@H]2Cc3c(cccc3C(F)(F)F)N(CCN(C)C)C(=O)[C@@H]2C)cc1 | 1000 nM
3 | CNc1ccc([C@@H]2Cc3c(cccc3C(F)(F)F)N(CCN(C)C)C(=O)[C@@H]2C)cc1 | 570 nM
4 | CNCCN1C(=O)[C@H](OC(C)=O)[C@H](c2ccc(OCCOC)cc2)Cc2c1cccc2C(F)(F)F | 5800 nM
5 | CNC(=O)CN1C(=O)[C@H](OC(C)=O)[C@H](c2ccc(OC)cc2)Cc2c1cccc2C(F)(F)F | 15000 nM
6 | CCCN(C)CCN1C(=O)[C@H](OC(C)=O)[C@H](c2ccc(OC)cc2)Cc2c1cccc2C(F)(F)F | 520 nM
7 | COc1ccc([C@@H]2Cc3c(cccc3C(F)(F)F)N(CC[N+](C)(C)C)C(=O)[C@@H]2C)cc1 | 840 nM
8 | C[C@H]1C(=O)N(CCN(C)C)c2cccc(C(F)(F)F)c2C[C@H]1c1ccc(O)cc1 | 1600 nM
9 | COc1ccc([C@@H]2Cc3c(cccc3C(F)(F)F)N(CCN(C)C)C(=O)[C@@H]2C)cc1OC | 2000 nM
10 | CSc1ccc([C@@H]2Cc3c(cccc3C(F)(F)F)N(CCN(C)C)C(=O)[C@@H]2C)cc1 | 1100 nM
11 | COc1ccc([C@@H]2Cc3c(cccc3C(F)(F)F)N(CCN(C)C(C)=O)C(=O)[C@@H]2O)cc1 | 13000 nM
12 | COc1ccc([C@@H]2Cc3ccccc3N(CCN(C)C)C(=O)[C@@H]2OC(C)=O)cc1 | 5100 nM
13 | COc1ccc([C@@H]2Cc3c(cccc3C(F)(F)F)N(CCN(C)C)C(=O)[C@@H]2O)cc1 | 660 nM
14 | CC[C@H]1C(=O)N(CCN(C)C)c2cccc(C(F)(F)F)c2C[C@H]1c1ccc(OC)cc1 | 600 nM
15 | C#CCN(C)CCN1C(=O)[C@H](OC(C)=O)[C@H](c2ccc(OC)cc2)Cc2c1cccc2C(F)(F)F | 1800 nM
16 | COc1ccc([C@@H]2Cc3c(OC)cccc3N(CCN(C)C)C(=O)[C@@H]2OC(C)=O)cc1 | 1800 nM
17 | COc1ccc([C@@H]2Cc3c(C(=O)OCc4ccccc4)cccc3N(CCN(C)C)C(=O)[C@@H]2OC(C)=O)cc1 | 1400 nM

Results, then the molecule that gave them:

Row | Kd | SMILES
18 | 120 nM | COc1ccc([C@@H]2Cc3c(ccc(Br)c3OC)N(CCN(C)C)C(=O)[C@@H]2C)cc1
19 | 400 nM | COc1ccc([C@@H]2Cc3c(OC)cccc3N(CCN(C)C)C(=O)[C@@H]2C)cc1
20 | 320 nM | COc1ccc([C@@H]2Cc3c(cccc3C(F)(F)F)N(CC(C)N(C)C)C(=O)[C@@H]2C)cc1 (stereo partly specified)
21 | 250 nM | CCC[C@H]1C(=O)N(CCN(C)C)c2ccccc2C[C@H]1c1ccc(OC)cc1
22 | 420 nM | C=CCN(C)CCN1C(=O)[C@H](OC(C)=O)[C@H](c2ccc(OC)cc2)Cc2c1cccc2C(F)(F)F
23 | 120 nM | COc1ccc([C@@H]2Cc3c(ccc(Br)c3OC)N(CCN(C)C)C(=O)[C@@H]2OC(C)=O)cc1
24 | 130 nM | COc1ccc([C@@H]2Cc3c(cccc3C(F)(F)F)N(CCN(C)C(C)C)C(=O)[C@@H]2C)cc1
25 | 160 nM | CNCCN1C(=O)[C@H](OC(C)=O)[C@H](c2ccc(OC)cc2)Cc2c1cccc2C(F)(F)F
26 | 220 nM | COc1ccc([C@@H]2Cc3c(cccc3C(F)(F)F)N(CCN(C)CCCCc3ccccc3)C(=O)[C@@H]2OC(C)=O)cc1
